Data from article PMC10747733, “N-Substituted 2-(Benzenosulfonyl)-1-Carbotioamide Derivatives Exert Antimicrobial and Cytotoxic Effects via Aldehyde Dehydrogenase Pathway: Synthesis, In Silico and In Vitro Studies” (Pharmaceuticals, 2023).
Converted amounts (≈) assume the structure as drawn.

Experiments:
Assay type in all cases: cell-based
[1] = tested on: Gram-positive bacteria; experiment: Broth microdilution, summary over reference Gram-positive bacteria; details: for share of reference Gram-positive strains with mild activity: mild activity: MIC 501–1000 µg/mL
Source text: (§1) Reference strains of microorganisms that came from American Type Culture Collection (ATCC) (Manassas, VA, USA) were used for this study. The representative Gram-positive bacteria were as follows: Staphylococcus aureus ATCC 25923, Staphylococcus aureus ATCC 29213, Staphylococcus aureus ATCC 43300, Staphylococcus epidermidis ATCC 12228, Enterococcus faecalis ATCC 29212, Micrococcus luteus ATCC 10240, Bacillus subtilis ATCC 6633 and Bacillus cereus ATCC 10876. While, those of Gram-negative bacteria were as follows: Bordetella bronchiseptica ATCC 4617, Escherichia coli ATCC 25922, Klebsiella pneumoniae ATCC 13883, Proteus mirabilis ATCC 12453, Salmonella Typhimurium ATCC 14028 and Pseudomonas aeruginosa ATCC 9027. Moreover, the following fungi belonging to yeasts were used: Candida albicans ATCC 10231, Candida albicans ATCC 2091, Candida parapsilosis ATCC 22019, Candida glabrata ATCC 90030 and Candida krusei ATCC 14243.
(§2) The new compounds WZ1–WZ4 were assayed for both antibacterial and antifungal activity using the broth microdilution method in accordance with the European Committee on Antimicrobial Susceptibility Testing (EUCAST) and Clinical and Laboratory Standards Institute (CLSI) guidelines. The microorganisms were grown at 35 °C for 18–24 h on appropriate media (nutrient agar and Sabouraud for bacteria and fungi, respectively) (BioMaxima S.A., Lublin, Poland). Next, microbial suspensions with an optical density of 0.5 McFarland standard scale (in sterile 0.85% NaCl) were prepared. In turn, the tested compounds were initially diluted at 50 mg/mL in dimethyl sulfoxide (DMSO) and the broth microdilution method was used to assess their minimum inhibitory concentrations (MICs). For these studies, selective broth Mueller-Hinton (MH) (BioMaxima S.A., Lublin, Poland) and RPMI (Roswell Park Memorial Institute) 1640 with MOPS (3-(N-Morpholino)propanesulfonic acid) (Sigma-Aldrich Chemicals, St. Louis, MO, USA) were used for bacteria and fungi, respectively. The antimicrobial effect of compounds WZ1–WZ4 was determined in the concentration range from 2000 to 0.98 µg/mL.
(§3) Then, the microbial suspensions were introduced into each well of the microplate and incubated for 18–24 h at 35 °C. […] The reference drugs ciprofloxacin or vancomycin (against bacteria) and nystatin (against fungi) (Sigma-Aldrich Chemicals, St. Louis, MO, USA) were also used. Next, the values of the minimum bactericidal concentration (MBC) and minimum fungicidal concentration (MFC) of WZ1–WZ4 were assessed. For this purpose, the cultures from each MIC determination well were transferred to a suitable solid medium and incubated under appropriate conditions. The lowest concentrations of compounds without microbial growth were read as MBC or MFC. The studies were performed in triplicate and representative data were gathered.
(§4) In turn, the MBC/MIC or MFC/MIC ratios were used to assess bactericidal/fungicidal (MBC/MIC or MFC/MIC ≤ 4) and bacteriostatic/fungistatic (MBC/MIC or MFC/MIC > 4) effect of these compounds [93].

[2] = tested on: Bacillus cereus ATCC 10876; experiment: Broth microdilution antimicrobial activity; details: for MBC / MIC: ATCC10876
Source text: as §1, §2, §3, §4

[3] = tested on: Candida krusei ATCC 14243; experiment: Broth microdilution antimicrobial activity; details: for MFC / MIC: Pichia kudriavzevii; for MFC: ATCC14243, read-out: MFC; for MIC: ATCC14243, read-out: MIC
Source text: as §1, §2, §3, §4

[4] = tested on: Staphylococcus aureus ATCC 29213; experiment: Broth microdilution antimicrobial activity; details: for MBC / MIC: ATCC29213; for MBC / MIC / MBC/MIC: Staphylococcus aureus ATCC 29213
Source text: as §1, §2, §3, §4

[5] = tested on: Salmonella Typhimurium ATCC 14028; experiment: Broth microdilution antimicrobial activity; details: for MBC / MIC: Salmonella enterica
Source text: as §1, §2, §3, §4

[6] = tested on: Candida albicans ATCC 10231; experiment: Broth microdilution antimicrobial activity; details: for MFC: ATCC10231, read-out: MFC; for MIC: ATCC10231, read-out: MIC
Source text: as §1, §2, §3, §4

[7] = tested on: Klebsiella pneumoniae ATCC 13883; experiment: Broth microdilution antimicrobial activity; details: for MBC / MIC: ATCC13883
Source text: as §1, §2, §3, §4

[8] = tested on: Bordetella bronchiseptica ATCC 4617; experiment: Broth microdilution antimicrobial activity; details: for MBC / MIC: ATCC4617
Source text: as §1, §2, §3, §4

[9] = tested on: Enterococcus faecalis ATCC 29212; experiment: Broth microdilution antimicrobial activity; details: for MBC / MIC: ATCC29212; for MBC / MIC / MBC/MIC: Enterococcus faecalis ATCC 29212; for MBC: read-out: MBC; for MIC: read-out: MIC
Source text: as §1, §2, §3, §4

[10] = tested on: Staphylococcus aureus ATCC 43300; experiment: Broth microdilution antimicrobial activity; details: for MBC / MIC: ATCC43300; for MBC / MIC / MBC/MIC: Staphylococcus aureus ATCC 43300
Source text: as §1, §2, §3, §4

[11] = tested on: Candida glabrata ATCC 90030; experiment: Broth microdilution antimicrobial activity; details: for MFC / MIC: Nakaseomyces glabratus; for MFC: ATCC90030, read-out: MFC; for MIC: ATCC90030, read-out: MIC
Source text: as §1, §2, §3, §4

[12] = tested on: Staphylococcus epidermidis ATCC 12228; experiment: Broth microdilution antimicrobial activity; details: for MBC / MIC: ATCC12228
Source text: as §1, §2, §3, §4

[13] = tested on: Micrococcus luteus ATCC 10240; experiment: Broth microdilution antimicrobial activity; details: for MBC / MIC: ATCC10240
Source text: as §1, §2, §3, §4

[14] = tested on: Candida albicans ATCC 2091; experiment: Broth microdilution antimicrobial activity; details: for MFC: ATCC2091, read-out: MFC; for MIC: ATCC2091, read-out: MIC
Source text: as §1, §2, §3, §4

[15] = tested on: Proteus mirabilis ATCC 12453; experiment: Broth microdilution antimicrobial activity; details: for MBC / MIC: ATCC12453
Source text: as §1, §2, §3, §4

[16] = tested on: Pseudomonas aeruginosa ATCC 9027; experiment: Broth microdilution antimicrobial activity; details: for MBC / MIC: ATCC9027
Source text: as §1, §2, §3, §4

[17] = tested on: Escherichia coli ATCC 25922; experiment: Broth microdilution antimicrobial activity; details: for MBC / MIC: ATCC25922
Source text: as §1, §2, §3, §4

[18] = tested on: Staphylococcus aureus ATCC 25923; experiment: Broth microdilution antimicrobial activity; details: for MBC / MIC: ATCC25923
Source text: as §1, §2, §3, §4

CCCCNC(=S)NNS(=O)(=O)c1ccccc1 [WZ2, 2-(Benzenesulfonyl)-N-Butylhydrazine-1-Carbothioamide]
share of reference Gram-positive strains with mild activity ([1]; 8 strains): 62.5% | MIC ([1]; most Gram-positive bacteria): 1000 µg/mL (≈ 3.48 mM) | share of reference Gram-positive strains with no activity ([1]; no activity: MIC > 1000 µg/mL, 8 strains): 37.5% | MBC/MIC [2]: 2 | MBC [2]: 2000 µg/mL (≈ 6.96 mM) | MIC [2]: 1000 µg/mL (≈ 3.48 mM) | MFC/MIC [3]: > 1 | MFC [3]: > 2000 µg/mL | MIC [3]: 2000 µg/mL (≈ 6.96 mM) | MBC [4]: > 2000 µg/mL | MIC [4]: 2000 µg/mL (≈ 6.96 mM) | bioactivity class ([4]; S. aureus ATCC 29213): no bioactivity (no bioactivity (MIC > 1000 µg/mL)) | MBC/MIC [4]: > 1 | MBC/MIC [5]: > 1 | MBC [5]: > 2000 µg/mL | MIC [5]: > 2000 µg/mL | MFC/MIC [6]: > 1 | MFC [6]: > 2000 µg/mL | MIC [6]: 2000 µg/mL (≈ 6.96 mM) | MBC/MIC [7]: > 1 | MBC [7]: > 2000 µg/mL | MIC [7]: > 2000 µg/mL | MBC/MIC [8]: > 1 | MBC [8]: > 2000 µg/mL | MIC [8]: > 2000 µg/mL | MBC [9]: > 2000 µg/mL | MIC [9]: > 2000 µg/mL | bioactivity class ([9]; E. faecalis): no bioactivity (no bioactivity (MIC > 1000 µg/mL)) | MBC/MIC [9]: > 1 | MBC [10]: > 2000 µg/mL | MIC [10]: 2000 µg/mL (≈ 6.96 mM) | bioactivity class ([10]; S. aureus ATCC 43300): no bioactivity (no bioactivity (MIC > 1000 µg/mL)) | MBC/MIC [10]: > 1 | MFC/MIC [11]: > 1 | MFC [11]: > 2000 µg/mL | MIC [11]: > 2000 µg/mL | MBC/MIC [12]: > 2 | MBC [12]: > 2000 µg/mL | MIC [12]: 1000 µg/mL (≈ 3.48 mM) | MBC/MIC [13]: 2 | MBC [13]: 2000 µg/mL (≈ 6.96 mM) | MIC [13]: 1000 µg/mL (≈ 3.48 mM) | MFC/MIC [14]: > 1 | MFC [14]: > 2000 µg/mL | MIC [14]: 2000 µg/mL (≈ 6.96 mM) | MBC/MIC [15]: > 1 | MBC [15]: > 2000 µg/mL | MIC [15]: > 2000 µg/mL | MBC/MIC [16]: > 1 | MBC [16]: > 2000 µg/mL | MIC [16]: > 2000 µg/mL | MBC/MIC [17]: > 1 | MBC [17]: > 2000 µg/mL | MIC [17]: > 2000 µg/mL | MBC/MIC [18]: > 2 | MBC [18]: > 2000 µg/mL | MIC [18]: 1000 µg/mL (≈ 3.48 mM)

CNC(=S)NNS(=O)(=O)c1ccccc1 [WZ4, 2-(Benzenesulfonyl)-N-Methylhydrazine-1-Carbothioamide]
MIC ([1]; Staphylococcus aureus ATCC 43300, Staphylococcus aureus ATCC 25923 and Micrococcus luteus): 250 to 500 µg/mL (≈ 1.02 to 2.04 mM) | MIC ([1]; Staphylococcus epidermidis, Bacillus subtilis and Bacillus cereus): 62.5 to 125 µg/mL (≈ 0.255 to 0.51 mM) | MIC ([1]; almost all Gram-positive bacteria): 62.5 to 500 µg/mL (≈ 0.255 to 2.04 mM) | share of reference Gram-positive strains with good activity ([1]; good activity: MIC 26–125 µg/mL, 8 strains): 37.5% | share of reference Gram-positive strains with mild activity ([1]; 8 strains): 25% | share of reference Gram-positive strains with moderate activity ([1]; moderate activity: MIC 126–500 µg/mL, 8 strains): 37.5% | MBC/MIC ratio ([1]; most Gram-positive bacteria): 1–4 | MBC/MIC [2]: 2 | MBC [2]: 125 µg/mL (≈ 0.51 mM) | MIC [2]: 62.5 µg/mL (≈ 0.255 mM) | MFC/MIC [3]: 4 | MFC [3]: 2000 µg/mL (≈ 8.15 mM) | MIC [3]: 500 µg/mL (≈ 2.04 mM) | MBC [4]: > 2000 µg/mL | MIC [4]: 1000 µg/mL (≈ 4.08 mM) | MBC/MIC [4]: > 2 | MBC/MIC [5]: > 1 | MBC [5]: > 2000 µg/mL | MIC [5]: > 2000 µg/mL | MFC/MIC [6]: 2 | MFC [6]: 1000 µg/mL (≈ 4.08 mM) | MIC [6]: 500 µg/mL (≈ 2.04 mM) | MBC/MIC [7]: > 1 | MBC [7]: > 2000 µg/mL | MIC [7]: > 2000 µg/mL | MBC/MIC [8]: > 1 | MBC [8]: > 2000 µg/mL | MIC [8]: > 2000 µg/mL | MBC [9]: > 2000 µg/mL | MIC [9]: 1000 µg/mL (≈ 4.08 mM) | MBC/MIC [9]: > 2 | MBC [10]: 2000 µg/mL (≈ 8.15 mM) | MIC [10]: 500 µg/mL (≈ 2.04 mM) | MBC/MIC [10]: 4 | MFC/MIC [11]: 4 | MFC [11]: 500 µg/mL (≈ 2.04 mM) | MIC [11]: 125 µg/mL (≈ 0.51 mM) | MBC/MIC [12]: 4 | MBC [12]: 500 µg/mL (≈ 2.04 mM) | MIC [12]: 125 µg/mL (≈ 0.51 mM) | MBC/MIC [13]: 2 | MBC [13]: 500 µg/mL (≈ 2.04 mM) | MIC [13]: 250 µg/mL (≈ 1.02 mM) | MFC/MIC [14]: 4 | MFC [14]: 1000 µg/mL (≈ 4.08 mM) | MIC [14]: 250 µg/mL (≈ 1.02 mM) | MBC/MIC [15]: > 1 | MBC [15]: > 2000 µg/mL | MIC [15]: > 2000 µg/mL | MBC/MIC [16]: > 1 | MBC [16]: > 2000 µg/mL | MIC [16]: > 2000 µg/mL | MBC/MIC [17]: > 1 | MBC [17]: > 2000 µg/mL | MIC [17]: > 2000 µg/mL | MBC/MIC [18]: > 4 | MBC [18]: > 2000 µg/mL | MIC [18]: 500 µg/mL (≈ 2.04 mM)
